This experiment addresses CDK2 (UniProt P24941). As to the kind of experiment: Enzyme Assay.
`O=C(Nc1ccccc1)c1n[nH]cc1-c1cccc(CO)c1` came in with an IC50 below 20 µM. The same measure for `O=C(Nc1cccc(CN2CCOCC2)c1)c1n[nH]cc1NC(=O)c1c(F)cccc1F`: below 20 µM; for `O=C(Nc1c[nH]nc1C(=O)Nc1ccc(F)cc1)c1ccc(CO)cc1`: below 20 µM; for `O=C(Nc1c[nH]nc1C(=O)Nc1ccc(F)cc1)c1ccccc1OCCN1CCCC1`: below 20 µM. For `CC1(C)CC(NC(=O)c2n[nH]cc2NC(=O)c2c(F)cccc2F)CC(C)(C)N1` the value was below 750 µM; for `CC(=O)Nc1c(C(=O)Nc2ccc(F)cc2)n[nH]c1C`, below 20 µM; for `O=C(Nc1ccc(F)cc1)c1n[nH]cc1Nc1nccnc1Cl`, below 20 µM.

For `O=C(Nc1c[nH]nc1C(=O)Nc1ccc(F)cc1)c1cc[nH]c1`, the IC50 is below 20 µM. For `CC(=O)N1CCC(C(=O)Nc2c[nH]nc2C(=O)Nc2ccc(F)cc2)CC1`, the IC50 is below 20 µM.

On to `CC1(C(=O)Nc2c[nH]nc2C(=O)Nc2ccc(F)cc2)CC1`, for which the IC50 is below 20 µM. For `CN1CCN(c2ccc(CNC(=O)c3n[nH]cc3-c3cccc(O)c3)cc2)CC1` the value was below 20 µM. `COc1ccc(F)c(C(=O)Nc2c[nH]nc2C(=O)Nc2ccc(F)cc2)c1` yielded an IC50 below 20 µM.

The compound `COc1cccc(OC)c1C(=O)Nc1c[nH]nc1C(=O)Nc1ccc(F)cc1` gave an IC50 below 20 µM. For `CN1CCN(c2ccc(CNC(=O)c3n[nH]cc3NC(=O)c3c(F)cccc3F)cc2)CC1` the value was below 20 µM; for `CN1CCN(c2c[nH]nc2C(=O)Nc2ccc(F)cc2)CC1`, below 20 µM. The same measure for `O=C(Nc1c[nH]nc1C(=O)Nc1ccc(F)cc1)c1ccsc1`: below 20 µM. The same measure for `O=C(Nc1ccccn1)c1n[nH]cc1NC(=O)c1c(F)cccc1F`: below 20 µM; for `COc1cccc(C(=O)Nc2c[nH]nc2C(=O)Nc2ccc(F)cc2)c1F`: below 20 µM; for `CNS(=O)(=O)Cc1ccc(CNC(=O)c2n[nH]cc2-c2ccc(Cl)cc2Cl)cc1`: below 20 µM.

`CN1CCC(NC(=O)c2n[nH]cc2NC(=O)c2c(F)cccc2F)CC1` had an IC50 below 20 µM. With `COc1cccc(C(=O)Nc2c[nH]nc2C(=O)Nc2ccc(F)cc2)c1`, the IC50 was below 20 µM. For `O=C1CCC(C(=O)Nc2c[nH]nc2C(=O)Nc2ccc(F)cc2)N1` (centres undefined) the value was below 20 µM; for `CCC(CC)Nc1c[nH]nc1C(=O)Nc1ccc(F)cc1`, below 20 µM; for `CN(c1c[nH]nc1C(=O)Nc1ccc(F)cc1)C1CCCCC1`, below 20 µM. For `Cc1ccccc1C(=O)Nc1c[nH]nc1C(=O)Nc1ccc(F)cc1` the value was below 20 µM.

`CC1CCCC(C)N1CCNC(=O)c1n[nH]cc1NC(=O)c1c(F)cccc1F` (centres undefined): the 50% inhibitory concentration (IC50) is below 20 µM. For `Cc1ccoc1C(=O)Nc1c[nH]nc1C(=O)Nc1ccc(F)cc1` the value was below 20 µM. As to `O=C(Nc1c[nH]nc1C(=O)Nc1ccc(F)cc1)c1ccoc1`, the IC50 was below 20 µM.

`O=C(NCc1ccccc1F)c1n[nH]cc1NC(=O)c1c(F)cccc1F` yielded an IC50 below 20 µM.

As to `NC(=O)c1n[nH]cc1-c1ccccc1`, the IC50 is below 750 µM. For `CN1CCN(c2ccc(CNC(=O)c3n[nH]cc3-c3ccccc3)cc2)CC1` the value was below 750 µM. Turning to `O=C(CCc1ccc(Cl)cc1)Nc1c[nH]nc1C(=O)Nc1ccc(F)cc1`, the IC50 was below 20 µM.

Consider `O=C(NCCN1CCOCC1)c1n[nH]cc1NC(=O)c1c(F)cccc1F`, for which the IC50 is below 20 µM.

Compound `Cc1ccc(C(=O)Nc2c[nH]nc2C(=O)Nc2ccc(F)cc2)cc1` had an IC50 below 20 µM. For `O=C(CCO)Nc1c[nH]nc1C(=O)Nc1ccc(F)cc1` the value was below 20 µM. For `Cc1onc(-c2ccccc2)c1C(=O)Nc1c[nH]nc1C(=O)Nc1ccc(F)cc1`, the IC50 was below 20 µM. The same measure for `O=C(Nc1ccc(F)cc1)c1n[nH]cc1NC(=O)c1c(O)cccc1F`: below 20 µM; for `O=C(NCC1CCOCC1)c1n[nH]cc1NC(=O)c1c(F)cccc1F`: below 20 µM; for `O=C(NCc1ccccn1)c1n[nH]cc1NC(=O)c1c(F)cccc1F`: below 20 µM. For `CC(C)Nc1c[nH]nc1C(=O)Nc1ccc(F)cc1` the value was below 20 µM; for `CN1CCN(CCC(=O)Nc2c[nH]nc2C(=O)Nc2ccc(F)cc2)CC1`, below 20 µM; for `Cn1cc(N)nc1C(=O)Nc1c[nH]nc1C(=O)Nc1ccc(F)cc1`, below 20 µM. The same measure for `O=C(Nc1c[nH]nc1C(=O)Nc1ccc(F)cc1)c1ccccn1`: below 20 µM; for `Cn1cc(CC(=O)Nc2c[nH]nc2C(=O)Nc2ccc(F)cc2)c2ccccc21`: below 20 µM; for `NC(=O)c1n[nH]cc1NC(=O)c1c(F)cccc1F`: below 20 µM. In turn, `O=C(NCc1ccccc1)c1n[nH]cc1NC(=O)c1c(F)cccc1F` registered an IC50 below 20 µM. For `O=C(Nc1c[nH]nc1C(=O)Nc1ccc(F)cc1)c1cccc([N+](=O)[O-])c1` the value was below 20 µM; for `O=C(Nc1ccc(F)cc1)c1n[nH]cc1Nc1cnccn1`, below 20 µM. Take `O=C(NCc1ccccc1Cl)c1n[nH]cc1NC(=O)c1c(F)cccc1F`: the IC50 was below 20 µM. The same measure for `O=C(NCc1c(F)cccc1F)c1n[nH]cc1NC(=O)c1c(F)cccc1F`: below 20 µM; for `O=C(CCN1CCOCC1)Nc1c[nH]nc1C(=O)Nc1ccc(F)cc1`: below 20 µM.

Regarding `O=C(Cc1c[nH]c2ccccc12)Nc1c[nH]nc1C(=O)Nc1ccc(F)cc1`, the IC50 was below 20 µM. For `CC(CO)Nc1c[nH]nc1C(=O)Nc1ccc(F)cc1` (centres undefined) the value was below 20 µM. On to `O=C(Nc1c[nH]nc1C(=O)Nc1ccc(F)cc1)c1ccccc1O`, for which the IC50 is below 20 µM. For `O=C(Nc1cccc(CO)c1)c1n[nH]cc1NC(=O)c1c(F)cccc1F` the value was below 20 µM.

`O=C(Nc1c[nH]nc1C(=O)Nc1ccc(F)cc1)c1ccccc1[N+](=O)[O-]` gave an IC50 below 20 µM.

In the case of `CN1CCC(Oc2ccc(F)cc2NC(=O)c2n[nH]cc2NC(=O)c2c(F)cccc2F)CC1`, the IC50 was below 20 µM.

Turning to `O=C(CCN1CCCCC1)Nc1c[nH]nc1C(=O)Nc1ccc(F)cc1`, the IC50 was below 20 µM.

In turn, `O=C(Nc1ccc(F)cc1)c1n[nH]cc1Nc1ccccn1` registered an IC50 below 20 µM. For `COC(=O)c1cccc(NC(=O)c2n[nH]cc2NC(=O)c2c(F)cccc2F)c1N` the value was below 20 µM; for `COc1ccc(NC(=O)c2n[nH]cc2-c2ccccc2)cn1`, below 20 µM; for `O=C(NC1CCN(Cc2ccccc2)CC1)c1n[nH]cc1NC(=O)c1c(F)cccc1F`, below 20 µM. For `O=C(Nc1ccccc1)c1n[nH]cc1-c1ccccc1` the value was below 20 µM. For `O=C(Nc1c[nH]nc1C(=O)Nc1ccc(F)cc1)c1ccc2ccccc2n1` the value was below 20 µM; for `O=C(Cc1c[nH]cn1)Nc1c[nH]nc1C(=O)Nc1ccc(F)cc1`, below 20 µM. As for `Cc1ccc(C)n1-c1c[nH]nc1C(=O)Nc1ccc(F)cc1`, the IC50 was below 750 µM.

With `O=C(Nc1c[nH]nc1C(=O)Nc1ccc(F)cc1)c1ccco1`, the IC50 is below 20 µM. For `Cc1cccc(C(=O)Nc2c[nH]nc2C(=O)Nc2ccc(F)cc2)c1` the value was below 20 µM; for `CC(C)(C)C(=O)Nc1c[nH]nc1C(=O)Nc1ccc(F)cc1`, below 20 µM; for `O=C(Nc1c[nH]nc1C(=O)Nc1ccc(F)cc1)c1ccccc1F`, below 20 µM. `O=C(Nc1c[nH]nc1C(=O)Nc1ccc(F)cc1)c1cccc(F)c1` returned an IC50 below 20 µM. The same measure for `CC(C)(C)C1CCC(NC(=O)c2n[nH]cc2NC(=O)c2c(F)cccc2F)CC1` (centres undefined): below 20 µM.

Compound `Cc1nc[nH]c1-c1c[nH]nc1C(=O)Nc1ccc(F)cc1` returned an IC50 below 20 µM.

Consider `O=C(Nc1c[nH]nc1C(=O)Nc1ccc(F)cc1)c1ccc([N+](=O)[O-])cc1`, for which the IC50 was below 20 µM. The same measure for `CN1CCN(c2ccc(CNC(=O)c3n[nH]cc3-c3ccc(Cl)cc3Cl)cc2)CC1`: below 750 µM.

Take `O=C(Nc1c[nH]nc1C(=O)Nc1ccc(F)cc1)c1ccc(F)cc1`: the IC50 was below 20 µM.

`O=C(Nc1ccc(F)cc1)c1n[nH]cc1NC(=O)C(F)(F)F` gave an IC50 below 20 µM. `COc1ccc(CNC(=O)c2n[nH]cc2NC(=O)c2c(F)cccc2F)cc1` came in with an IC50 below 20 µM. The same measure for `O=C(Nc1ccc(F)cc1)c1n[nH]cc1NC(=O)C1(O)CC1`: below 20 µM; for `O=C(NCC1CCCNC1)c1n[nH]cc1NC(=O)c1c(F)cccc1F` (centres undefined): below 20 µM. Consider `Nc1nnnn1CC(=O)Nc1c[nH]nc1C(=O)Nc1ccc(F)cc1`, for which the IC50 is below 20 µM. `CC(C)(C)OC(=O)N1CCCC(CNC(=O)c2n[nH]cc2NC(=O)c2c(F)cccc2F)C1` (centres undefined) displayed an IC50 below 20 µM.

Compound `O=C(NCc1c(Cl)cccc1Cl)c1n[nH]cc1NC(=O)c1c(F)cccc1F` gave a half-inhibitory concentration (IC50) below 750 µM. For `Cc1sccc1C(=O)Nc1c[nH]nc1C(=O)Nc1ccc(F)cc1` the value was below 20 µM; for `Cc1[nH]nc(C(=O)Nc2ccc(F)cc2)c1NC(=O)c1c(F)cccc1F`, below 20 µM; for `O=C(Nc1c[nH]nc1C(=O)Nc1ccc(F)cc1)c1ccc(O)nc1`, below 20 µM. For `O=C(NC1CCCC1)c1n[nH]cc1NC(=O)c1c(F)cccc1F` the value was below 20 µM. For `O=C(Nc1ccc(F)cc1)c1n[nH]cc1NC(=O)c1c[nH]c2ccccc12` the value was below 20 µM; for `O=C(Nc1ccc(F)cc1)c1n[nH]cc1NC1CCCCC1`, below 20 µM; for `O=C(CCc1nnc[nH]1)Nc1c[nH]nc1C(=O)Nc1ccc(F)cc1`, below 20 µM.

With `O=C(NC1CCN(Cc2ccccc2)C1)c1n[nH]cc1NC(=O)c1c(F)cccc1F` (centres undefined), the IC50 was below 20 µM. The same measure for `O=C(NCC1CCCCC1)c1n[nH]cc1NC(=O)c1c(F)cccc1F`: below 20 µM; for `O=C(Nc1c[nH]nc1C(=O)Nc1ccc(F)cc1)c1ccc2cc[nH]c2c1`: below 20 µM. For `O=C(CO)Nc1c[nH]nc1C(=O)Nc1ccc(F)cc1` the value was below 20 µM; for `O=C(NC1CCOCC1)c1n[nH]cc1NC(=O)c1c(F)cccc1F`, below 20 µM. The same measure for `O=C(Nc1c[nH]nc1C(=O)Nc1ccc(F)cc1)c1cnc[nH]1`: below 20 µM; for `COc1ccccc1C(=O)Nc1c[nH]nc1C(=O)Nc1ccc(F)cc1`: below 20 µM. In the case of `O=C(Nc1ccc(F)cc1)c1n[nH]cc1N1CCOCC1`, the IC50 was below 20 µM. In the case of `O=C(Nc1cc(F)ccc1OCCN1CCCC1)c1n[nH]cc1NC(=O)c1c(F)cccc1F`, the IC50 was below 20 µM.
